From ChEMBL document CHEMBL1150359, “Identification of non-lipid LPA3 antagonists by virtual screening” (Bioorg Med Chem, 2008)
The source made the active and inactive calls. The rule behind the calls is not given here. Peptide text beside a SMILES is read from it. * marks the point of attachment. Dnp = O=[N+]([O-])c1ccc(*)c([N+](=O)[O-])c1

Legend:
[1] = biological target: T1, Lysophosphatidic acid receptor 1 (Homo sapiens, UniProt Q92633); experiment: Activity at LPA1 receptor expressed in rat RH7777 cells assessed as inhibition of LPA-induced intracellular calcium concentration at 30 uM; assay type: functional, cell-based
[2] = biological target: T2, Lysophosphatidic acid receptor 3 (Homo sapiens, UniProt Q9UBY5); experiment: (§1) Antagonist activity at LPA3 receptor expressed in rat RH7777 cells assessed as inhibition of LPA-induced intracellular calcium concentration; assay type: functional, cell-based
T2 sequence (Q9UBY5 whole entry): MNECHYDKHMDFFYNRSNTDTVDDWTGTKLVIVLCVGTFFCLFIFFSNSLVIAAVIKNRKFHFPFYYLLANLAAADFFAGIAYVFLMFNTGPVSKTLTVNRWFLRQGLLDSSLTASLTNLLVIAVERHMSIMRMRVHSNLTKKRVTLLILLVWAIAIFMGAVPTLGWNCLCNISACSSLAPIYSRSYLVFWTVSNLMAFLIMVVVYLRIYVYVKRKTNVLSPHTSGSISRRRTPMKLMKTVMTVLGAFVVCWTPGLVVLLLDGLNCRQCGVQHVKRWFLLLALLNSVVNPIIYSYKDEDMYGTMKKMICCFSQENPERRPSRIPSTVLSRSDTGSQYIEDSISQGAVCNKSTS

[3] = biological target: T3, Lysophosphatidic acid receptor 2 (Homo sapiens, UniProt Q9HBW0); experiment: Antagonist activity at LPA2 receptor expressed in rat RH7777 cells assessed as inhibition of LPA-induced intracellular calcium concentration; assay type: functional, cell-based
[4] = biological target: T4, Lysophosphatidic acid receptor 3 (Homo sapiens) (UniProt Q9UBY5); experiment: as §1; assay type: functional, cell-based
T4 sequence (whole entry): T2 sequence (Q9UBY5 whole entry)

[5] = biological target: T4, Lysophosphatidic acid receptor 3 (Homo sapiens); experiment: Activity at LPA3 receptor expressed in rat RH7777 cells assessed as inhibition of LPA-induced intracellular calcium concentration at 30 uM; assay type: functional, cell-based
[6] = biological target: T1, Lysophosphatidic acid receptor 1; experiment: Antagonist activity at LPA1 receptor expressed in rat RH7777 cells assessed as inhibition of LPA-induced intracellular calcium concentration; assay type: functional, cell-based
[7] = biological target: T3, Lysophosphatidic acid receptor 2; experiment: Activity at LPA2 receptor expressed in rat RH7777 cells assessed as inhibition of LPA-induced intracellular calcium concentration at 30 uM; assay type: functional, cell-based
[8] = biological target: T3, Lysophosphatidic acid receptor 2; experiment: Agonist activity at LPA2 receptor expressed in rat RH7777 cells assessed as LPA-induced intracellular calcium response; assay type: functional, cell-based
[9] = biological target: T1, Lysophosphatidic acid receptor 1; experiment: Agonist activity at LPA1 receptor expressed in rat RH7777 cells assessed as LPA-induced intracellular calcium response; assay type: functional, cell-based
[10] = biological target: T2, Lysophosphatidic acid receptor 3; experiment: Agonist activity at LPA3 receptor expressed in rat RH7777 cells assessed as LPA-induced intracellular calcium response; assay type: functional, cell-based
[11] = biological target: T4, Lysophosphatidic acid receptor 3 (Homo sapiens); experiment: Activity at LPA3 receptor expressed in rat RH7777 cells assessed as potentiation of LPA-induced intracellular calcium concentration; assay type: functional, cell-based
[12] = biological target: T2, Lysophosphatidic acid receptor 3; experiment: Inhibition of LPA3 receptor

T1 sequence (Q92633 whole entry): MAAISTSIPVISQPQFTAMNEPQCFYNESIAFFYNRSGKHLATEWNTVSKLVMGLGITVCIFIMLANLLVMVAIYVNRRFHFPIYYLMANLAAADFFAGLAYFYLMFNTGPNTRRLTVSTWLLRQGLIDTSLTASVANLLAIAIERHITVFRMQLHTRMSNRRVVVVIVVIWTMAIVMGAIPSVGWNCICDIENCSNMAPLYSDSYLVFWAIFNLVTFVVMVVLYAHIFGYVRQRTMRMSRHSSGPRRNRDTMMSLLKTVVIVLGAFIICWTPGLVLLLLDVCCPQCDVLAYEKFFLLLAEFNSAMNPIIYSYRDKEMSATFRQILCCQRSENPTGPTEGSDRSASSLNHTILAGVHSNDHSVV
T3 sequence (Q9HBW0 whole entry): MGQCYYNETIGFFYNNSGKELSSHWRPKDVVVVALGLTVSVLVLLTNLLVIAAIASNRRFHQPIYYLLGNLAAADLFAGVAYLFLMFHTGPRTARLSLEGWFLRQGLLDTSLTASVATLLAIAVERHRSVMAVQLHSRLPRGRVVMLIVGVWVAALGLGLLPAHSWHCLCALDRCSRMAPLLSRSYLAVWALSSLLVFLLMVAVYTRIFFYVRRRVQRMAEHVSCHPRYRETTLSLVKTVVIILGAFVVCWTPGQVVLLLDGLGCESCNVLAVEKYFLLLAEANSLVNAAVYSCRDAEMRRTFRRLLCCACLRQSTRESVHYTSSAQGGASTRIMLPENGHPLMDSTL

Work on `O=C(O)/C=C/C(=O)Nc1ccc(-c2ccc(NC(=O)/C=C/C(=O)O)cc2)cc1` yielded an Imax [1] of 59%, an IC50 [2] of 13800 nM and a Ki [2] of 7020 nM. It also gave an IC50 [3] of 28.3 nM and a Ki [3] of 21.1 nM.
With `NCC(=O)N[C@@H](CSc1ccc([N+](=O)[O-])cc1[N+](=O)[O-])C(=O)N[C@@H](CCC(=O)O)C(=O)O` (H-Gly-Cys(Dnp)-Glu-OH) the Imax [4] was 69.8% and the IC50 [2] was 24 nM.
`O=C(O)/C=C/C(=O)Nc1cccc(NC(=O)/C=C/C(=O)O)c1C(=O)O` showed an Imax [4] of 81.7% and an Imax [3] of 53.3%.
For `O=C(O)/C=C\C(=O)Nc1cccc(NC(=O)Cc2ccccc2)c1`, the Imax [1] was 52.2% and the Imax [5] was 16%.
With `O=C(O)/C=C/C(=O)Nc1cccc(NC(=O)/C=C/C(=O)O)c1` the IC50 [6] was 220 nM, the Ki [6] was 50 nM and the IC50 [3] was 21.8 nM. The Ki [3] was 20.8 nM.
Work on `O=C(O)/C=C\C(=O)Nc1cccc(NC(=O)c2ccccc2)c1` yielded an Imax [1] of 34.6%, an IC50 [2] of 347 nM and a Ki [2] of 317 nM. For the same molecule, the Imax [7] was 46%.
`O=C(O)/C=C/C(=O)Nc1ccc(Oc2cccc(Oc3ccc(NC(=O)/C=C/C(=O)O)cc3)c2)cc1` gave an IC50 [6] of 27400 nM, a Ki [6] of 13500 nM and an IC50 [2] of 1230 nM. For the same molecule, the Ki [2] was 310 nM, the IC50 [3] was 8.9 nM and the Ki [3] was 7.2 nM.
Molecule `CCOC(=O)c1ccc(/C=C/c2ccc(S(=O)(=O)O)cc2)cc1` has an Emax [6] of 180%, an Emax [5] of 214% and an EC50 [8] of over 11400 nM. For the same molecule, the EC50 [9] was over 12300 nM, the EC50 [10] was over 11800 nM and the Emax [7] was 113%.
With `O=P(O)(O)OC[C@H]1O[C@@H](n2cnc3c(NCc4ccccc4)ncnc32)[C@H](O)[C@@H]1O` the Activity [11] was “Active”.
Molecule `CCCCCCC(=O)OC[C@H](COP(O)(O)=S)OC(=O)CCCCCC` has an IC50 [12] of 184 nM.
`CCCCCCC(=O)OC[C@H](COP(=O)(O)O)OC(=O)CCCCCC` showed an IC50 [12] of 143 nM.
For `Nc1ccc(C(=O)Nc2ccc(C(=O)Nc3ccc4c(O)cc(S(=O)(=O)O)cc4c3)cc2)cc1`, the IC50 [6] was over 7300 nM, the Imax [6] was 59.3% and the Imax [4] was 53.7%. It also gave an IC50 [3] of over 9400 nM and an Imax [3] of 88%.
